Experimental data from the NIST ThermoML archive (doi:10.1016/j.jct.2017.09.022).

Assay: molar heat capacity at constant pressure
Conditions: 101.33 kPa, Crystal, Small (less than 1 g) adiabatic calorimetry

C[C@@H](O)[C@H](N)C(=O)O [L-threonine]
Conditions | molar heat capacity at constant pressure [J/K/mol]
145.26 K | 88.8
146.21 K | 89.13
147.15 K | 89.63
148.1 K | 90.13
149.05 K | 90.63
150 K | 90.96
150.93 K | 91.38
151.88 K | 91.87
152.83 K | 92.21
153.78 K | 92.79
154.71 K | 93.21
155.66 K | 93.7
156.61 K | 94.2
157.55 K | 94.54
158.5 K | 94.87
159.44 K | 95.37
160 K | 95.62
160.38 K | 95.7
161.33 K | 96.12
162.27 K | 96.7
163.21 K | 97.03
164.16 K | 97.53
165.1 K | 98.03
166.02 K | 98.36
166.96 K | 98.78
167.9 K | 99.11
168.84 K | 99.69
169.78 K | 100.02
170 K | 100.19
170.72 K | 100.44
171.66 K | 100.85
172.6 K | 101.27
173.54 K | 101.6
174.48 K | 102.1
175.42 K | 102.6
176.34 K | 103.02
177.28 K | 103.43
178.21 K | 103.76
179.15 K | 104.35
180 K | 104.6
180.08 K | 104.6
180.99 K | 104.93
181.93 K | 105.34
182.86 K | 105.84
183.79 K | 106.34
184.73 K | 106.67
185.66 K | 107.09
186.59 K | 107.51
187.52 K | 107.92
188.45 K | 108.25
189.38 K | 108.75
190 K | 109
190.32 K | 109.09
191.25 K | 109.5
192.18 K | 110
193.1 K | 110.25
194.03 K | 110.67
194.96 K | 111.08
195.86 K | 111.5
196.79 K | 111.83
197.72 K | 112.33
198.65 K | 112.66
199.57 K | 112.99
200 K | 113.33
200.62 K | 113.49
201.78 K | 114.07
202.93 K | 114.57
204.09 K | 115.07
205.25 K | 115.65
206.41 K | 116.15
207.57 K | 116.57
208.73 K | 117.07
209.9 K | 117.57
210 K | 117.57
211.06 K | 118.07
212.23 K | 118.65
213.35 K | 119.06
214.52 K | 119.56
215.69 K | 119.98
216.86 K | 120.48
218.03 K | 120.89
219.2 K | 121.47
220 K | 121.81
220.37 K | 121.97
221.54 K | 122.56
222.71 K | 122.97
223.89 K | 123.47
225.06 K | 123.97
226.24 K | 124.55
227.41 K | 125.05
228.59 K | 125.47
229.77 K | 125.96
230 K | 126.13
230.95 K | 126.38
232.1 K | 126.96
233.28 K | 127.54
234.46 K | 128.29
235.64 K | 128.62
236.82 K | 129.04
238 K | 129.62
239.18 K | 130.04
240 K | 130.37
240.37 K | 130.54
241.55 K | 131.04
242.74 K | 131.45
243.92 K | 132.03
245.11 K | 132.53
246.3 K | 132.95
247.49 K | 133.61
248.68 K | 134.03
249.87 K | 134.53
250 K | 134.69
251.05 K | 134.94
252.25 K | 135.36
253.44 K | 135.86
254.64 K | 136.69
255.83 K | 137.11
257.02 K | 137.94
258.22 K | 138.44
259.42 K | 138.77
260 K | 138.93
260.62 K | 139.27
261.82 K | 139.85
263.02 K | 140.35
264.22 K | 140.68
265.42 K | 141.43
266.63 K | 142.01
267.84 K | 142.43
269.05 K | 142.93
270 K | 143.26
270.25 K | 143.34
271.46 K | 144.09
272.67 K | 144.42
273.88 K | 145.17
275.09 K | 145.5
276.3 K | 145.92
277.52 K | 146.42
278.73 K | 146.83
279.95 K | 147.5
280 K | 147.58
281.17 K | 147.91
282.39 K | 148.5
283.61 K | 149
284.84 K | 149.49
286.06 K | 149.99
287.29 K | 150.57
288.48 K | 151.16
289.71 K | 151.74
290 K | 151.82
290.94 K | 152.24
292.17 K | 152.65
293.4 K | 153.57
294.63 K | 153.65
295.86 K | 154.4
297.1 K | 154.82
298.15 K | 155.31
298.33 K | 155.4
299.57 K | 155.98
300 K | 155.98
301.28 K | 156.31
303.43 K | 157.14
305.56 K | 157.97
307.69 K | 158.56
309.8 K | 159.55
310 K | 159.55
311.9 K | 160.3
313.99 K | 161.13
316.05 K | 161.88
318.12 K | 162.8
320 K | 163.46
320.16 K | 163.55
322.2 K | 164.21
324.22 K | 164.88
326.23 K | 165.71
328.22 K | 166.29
330 K | 166.87
330.18 K | 166.95
332.14 K | 167.54
333.96 K | 168.2
335.89 K | 168.95
337.81 K | 169.7
339.72 K | 170.36
340 K | 170.61
341.6 K | 171.28
343.43 K | 172.36
345.28 K | 172.77
347.12 K | 173.69
348.93 K | 174.44
350 K | 174.94
350.73 K | 175.19
352.45 K | 175.85
354.22 K | 176.68
355.96 K | 177.35
357.68 K | 177.93
359.39 K | 178.59
360 K | 178.76
361.08 K | 179.26
362.43 K | 179.59
364.01 K | 180.17
365.64 K | 180.84
367.26 K | 181.17
368.85 K | 181.84
370 K | 182.25
370.42 K | 182.5
371.97 K | 182.83
